Our source for the tumor volume values is patent US20070190068A1, “uPAR-binding molecule-drug conjugates and uses thereof” (priority 2005, published 2007).

The assay concerns MDA-231 GFP tumors. The assay can be described thus: Human breast carcinoma MDA-MB-231 GFP xenograft in nude mice (tumor volume). Format: in vivo, BALB/c (nu/nu) mice. The settings on record: week 14. The source says: FIG. 5. Preliminary dose defining study. Effect of anti-human uPAR IgG (Mab 3936), doxorubicin, Mab 3936-Doxorubicin conjugate on xenograft human breast cancer tumor model in nude mice (MDA-231 GFP tumors). Tumor volume (mm^3) from week 8 to week 11 post tumor cell inoculation were compared. Bar graph from left to right: animals received control serum, doxorubicin via intravenous (DOX I.V.), doxorubicin via […] (DOX I.P.), Mab 3936 (3936) or Mab 3936-doxorubicin conjugate (3936+DOX) (2 mg/animal).
FIG. 6. Effect of anti-human uPAR IgG (Mab 3936), doxorubicin, Mab 3936-doxorubicin conjugate on xenograft human breast cancer tumor model in nude mice (MDA-231 GFP tumors). Tumor volume (mm^3) from week 5 to week 15 post tumor cell inoculation were compared. Bar graph from left to right: animals received control serum, doxorubicin via intravenous, Mab 3936, doxorubicin via […], and Mab 3936-doxorubicin conjugate.
FIG. 7. […]
For xenograft studies, 4 to 6 weeks old BALB/c (nu/nu) female mice were obtained from Charles River Inc. The mice weighed an average of 20 grams. […] The tumor mass was measured in two dimensions with calipers, twice a week.
Throughout the course of these studies, all control and experimental mice were monitored for any noticeable side effects. […]
On the technique in general: Xenograft models place foreign cells or tissue in a host animal.

As for `COc1cccc2c1C(=O)c1c(O)c3c(c(O)c1C2=O)C[C@@](O)(C(=O)CO)C[C@@H]3O[C@H]1C[C@H](N)[C@H](O)[C@H](C)O1` [doxorubicin], the tumor volume is reported as 330 mm^3.
